CC(C)(C)OC(=O)N1CCC[C@H]1C(=O)O
solubility (mole fraction)
Settings	283.15 K	288.15 K	293.15 K	298.15 K	303.15 K	313.15 K	323.15 K
in 2-butanone	0.0371	–	0.0532	–	0.0687	0.0925	0.125
in acetone	0.0457	–	0.06	–	0.075	0.0965	0.129
in acetonitrile	0.0113	–	0.0166	–	0.0247	0.0379	0.054
in dichloromethane	0.0896	0.098	0.107	0.116	0.125	–	–
in ethanol	0.0968	–	0.111	–	0.133	0.172	0.215
in ethyl acetate	0.0217	–	0.0303	–	0.0392	0.0494	0.0606
in isobutanol	0.072	–	0.0942	–	0.12	0.143	0.166
in isopropanol	0.0971	–	0.114	–	0.134	0.168	0.208
in methanol	0.115	–	0.15	–	0.196	0.24	0.297
in methyl acetate	0.0252	–	0.0339	–	0.0436	0.055	0.0698
in n-butanol	0.0889	–	0.103	–	0.126	0.149	0.178
in n-propanol	0.0944	–	0.109	–	0.132	0.16	0.19
in sec-butanol	0.0968	–	0.127	–	0.157	0.193	0.232
in water	6.6e-05	–	0.000204	–	0.000593	0.000959	0.00144
